Patent US9403815B2, “Compounds and uses thereof in modulating levels of various amyloid beta peptide alloforms” (The Regents of the University of California, priority 2010, dated 2016)
Converted amounts (≈) assume the structure as drawn. Like-named read-outs stand apart in the source and are kept apart here.

How the values were obtained:
Aβ42 = test: Sandwich ELISA for inhibition of Aβ42 secreted by SH-SY5Y-APP cells; assay type: cell-based; settings: Homo sapiens
Method: (§1) The SH-SY5Y-APP human cell line was derived by transfecting a human neuroblastoma (SH-SY5Y) cell line with a plasmid expressing wild type human APP751 cDNA and selecting for stable expression of human APP and human Aβ. In each case, the levels of Aβ42 or Aβtotal or Aβ38 peptides secreted into the media of these cells were measured using either two-site monoclonal antibody (mAb)-based sandwich ELISA assays (described below for Aβ42 and Aβtotal) or in the case of Aβ38 EC50's, using either the Meso Scale Aβ38, 40, 42 triplex kit along with the Meso Scale Sector Imager 6000 according to the manufacturer's protocols. This SH-SY5Y-APP human cell line was used for all cell-based Aβ peptide immunochemical assays.
(§2) SH-SY5Y-APP cells were plated at 75,000 cells/well in 96-well tissue culture plates. After 16-18 h, the culture medium was replaced with fresh medium containing either compound or vehicle. Replicates of 3 wells per test concentration were used, with 10 concentrations at ½ log step intervals. Vehicle (0.12% DMSO) is included as a control.
The Sandwich ELISA Assay for Measuring Inhibition of Aβ42 and Determination of Aβ42 IC50 Inhibition Values
An Anti-Aβ35-42 coating monoclonal antibody which is specific for the Aβ42 peptide, stored in 60 μl aliquots at −80° C. (thaw once and discard after use).
An Anti-Aβ1-12 alkaline phosphatase-conjugated monoclonal antibody, stored at 4° C.
Anti-Aβ35-42 monoclonal antibody was diluted 1/300 in 1×TBS. After vortexing, pipette 100 μl of antibody into each well of microplate. The antibody covered the entire bottom of each well. Each microplate was covered with a plate sealer and placed at 4° C. for 19 h.
Microplates were removed from the cold room, the coating monoclonal antibody were aspirated off from all wells. Each well was rinsed once with 200 μl TBS^2. The wells were blocked by pipetting 200 μl of 1% BSA/TBS blocking solution per well and the plates incubated at room temperature for 60 minutes on a laboratory benchtop.
Sample addition to plates: Directly following the 60 min block step, blocking buffer was aspirated off and 50 μl of sample was pipetted to each well and then standard curve samples (50 μl) were added in duplicate to top 2 rows.
The plates were incubated at room temperature for 2 h.
Anti-Aβ1-12 mAb-alkaline phosphatase conjugate was diluted 1/10,000 in 1% BSA/TBS/0.1% Tween-20 and vortexed. 50 μl was pipetted into each well of the microplate.
To all plates, 50 μl of CDP-Star (Sapphire) luminescence substrate (brought to room temperature prior to use) was added to each well and incubated for 15 min at room temperature in the dark. The timer was started after finishing adding the substrate to the first plate of the group. This step was done with a group of 5 plates or less.
Each microplate was read in a Glow Runner luminometer^3.
Data Analysis (Apply to Both Aβ42 and Aβtotal Sandwich ELISA Assays):
A. Calculations • 1. Average the sample values and calculate the SD (standard deviation) and % CV (all datapoints must be <30%). If not, determine if one well is an outlier by using the Grubbs test (Graphpad website). • 2. Convert sample values to pg/well using the linear fit of the standard curve. Footnotes (Apply to Both Aβ42 and Aβtotal Sandwich ELISA Assays)

Aβtotal = test: Sandwich ELISA for total Aβ peptides secreted by SH-SY5Y-APP cells; assay type: cell-based, human
Method: as §1, §2
The Sandwich ELISA ASSAY for Measuring Inhibition of Total Aβ Peptides and Determination of Aβtotal Peptides IC50 Inhibition Values
Anti-Aβ1-12 monoclonal antibody was diluted 1/100 in 1×TBS. Vortex. 100 μl was pipetted into each well of a microplate. The coating monoclonal antibody covered the entire bottom of each well. Each microplate was covered with a plate sealer and placed in the refrigerator overnight.
Microplates were removed from the refrigerator and each well was rinsed with 200 μl TBS. The wells were blocked by pipetting 200 μl 1% BSA/TBS per well of each microplate. The microplates were incubated at room temperature for 60 minutes.
50 μl of sample was pipetted at the appropriate dilution into designated wells of the microplates. The microplates were incubated at room temperature for 2 hrs.
The biotinylated monoclonal antibody (anti-human Amyloid Beta Protein, Clone 4G8) was diluted 1/5000 in 1% BSA/TBS/0.1% Tween-20. After vortexing, 50 μl was pipetted into each well of each microplate. The microplates were incubated at room temperature on a laboratory bench top for 1 hour.
Alkaline Phosphatase Conjugated Streptavidin was diluted 1/10,000 in 1% BSA/TBS/0.1% Tween-20. Vortex. 50 μl was pipetted into each well of microplate. The microplates were incubated at room temperature on bench top for 1 h.
After finishing washing the microplates (≦5 microplates per assay), 50 μl of CSPD-Sapphire luminescence substrate (brought room temperature prior to use) was added to each well and the wells were incubated for 15 minutes at room temperature in the dark. The timer was started after finishing of the adding of the substrate solution to the first plate of the group of microplates. […]
Plates were read in a Glow Runner luminometer. […]

Aβ38 = test: Meso Scale Aβ38, 40, 42 triplex assay for potentiation of Aβ38 in SH-SY5Y-APP cells; assay type: cell-based; settings: Homo sapiens, Meso Scale triplex kit
Method: as §1, §2

[1] = Solubility at pH 6.6 and pH 7.4; assay type: physicochemical
NOTCH = test: Western blot of NOTCH proteolysis (NICD production) in H4-APP751 cells transfected with NδED; assay type: cell-based, human; settings: 500 nM, 24 hrs
Method: Stable H4 human neuroglioma cells over-expressing human APP751 (H4-APP751 cells), were transfected with the NδED construct (Lanes 1-6), and then treated with vehicle (DMSO; Lanes 1-2 Control), 500 nM GSM41 (test compound), or 500 nM DAPT (Lanes 5-6 inhibitor of gamma secretase) for another 24 hrs. Additionally H4-APP751 cells were transfected with the NICD construct (as a reference of NICD; Lanes 7-8). Cells were harvested 48 hrs post transfection and subjected to Western blotting analysis. Myc antibody was utilized to assess the NδED and NICD tagged with Myc on their N-termini. β-Actin was utilized as the loading control.

[2] = pH 6.6, aqueous buffer, pH6.6, read-out: Solubility (μM) pH6.6

**Q.** Which IC50 (Aβ42) does the source give for `Cc1cn(-c2ccc(-c3csc(Nc4cc(C(C)(C)C)nn4C)n3)cc2)cn1` [Compound 27] here?
**A.** Its IC50 is 250 to 500 nM.

**Q.** What about the “Total Aβ” value (Aβtotal) of the same compound?
**A.** Its value is “No Change”.

**Q.** For `Cc1cn(-c2ccc(-c3csc(Nc4cc(C(C)(C)C)nn4C)n3)cc2F)cn1` [Compound 28], which IC50 (Aβ42) is on record?
**A.** The IC50 was 100 to 250 nM.

**Q.** With `COc1cc(-c2csc(Nc3cc(C(C)(C)C)nn3C)n2)ccc1-n1cnc(C)c1` [Compound 29] as the compound, how does the IC50 (Aβ42) read?
**A.** Its IC50 is 100 to 250 nM.

**Q.** Which IC50 (Aβ42) does the source give for `Cc1cn(-c2ccc(-c3csc(Nc4cc(C(C)(C)C)nn4C)n3)cn2)cn1` [Compound 30] here?
**A.** The IC50 was greater than 500 nM.

**Q.** With `Cc1cn(-c2ccc(-c3csc(Nc4c5c(nn4C)CCCC5)n3)cc2)cn1` [Compound 31] as the compound, how does the IC50 (Aβ42) read?
**A.** The IC50 was 100 to 250 nM.

**Q.** What about the “Total Aβ” value (Aβtotal) of the same compound?
**A.** The value was “No Change”.

**Q.** Which IC50 (Aβ42) does the source give for `Cc1cn(-c2ccc(-c3csc(Nc4c5c(nn4C)CCCC5)n3)cc2F)cn1` [Compound 32] here?
**A.** The IC50 was 100 to 250 nM.

**Q.** Which IC50 (Aβ42) does the source give for `COc1cc(-c2csc(Nc3c4c(nn3C)CCCC4)n2)ccc1-n1cnc(C)c1` [Compound 33] here?
**A.** The IC50 was 100 to 250 nM.

**Q.** For `Cc1cn(-c2ccc(-c3csc(Nc4c5c(nn4C)CCCC5)n3)cn2)cn1` [Compound 34], which IC50 (Aβ42) is on record?
**A.** The IC50 was greater than 500 nM.

**Q.** And the “Total Aβ” value (Aβtotal)?
**A.** The value was “No Change”.

**Q.** For `CCn1nc(C(C)(C)C)cc1Nc1nc(-c2ccc(-n3cnc(C)c3)cc2)cs1` [Compound 35], which IC50 (Aβ42) is on record?
**A.** The IC50 was 100 to 250 nM.

**Q.** Which EC50 (Aβ38) does the source give for `CCn1nc(C(C)(C)C)cc1Nc1nc(-c2ccc(-n3cnc(C)c3)c(F)c2)cs1` [Compound 36] here?
**A.** The EC50 was greater than 500 nM.

**Q.** What about the IC50 (Aβ42) of the same compound?
**A.** Its IC50 is less than 100 nM.

**Q.** And the “Total Aβ” value (Aβtotal)?
**A.** Its value is “No Change”.

**Q.** For `CCn1nc(C(C)(C)C)cc1Nc1nc(-c2ccc(-n3cnc(C)c3)c(OC)c2)cs1` [Compound 37], which EC50 (Aβ38) is on record?
**A.** The EC50 was 100 to 250 nM.

**Q.** What about the IC50 (Aβ42) of the same compound?
**A.** Its IC50 is less than 100 nM.

**Q.** For `CCn1nc(C(C)(C)C)cc1Nc1nc(-c2ccc(-n3cnc(C)c3)nc2)cs1` [Compound 38], which IC50 (Aβ42) is on record?
**A.** The IC50 was 250 to 500 nM.

**Q.** For `CCn1nc2c(c1Nc1nc(-c3ccc(-n4cnc(C)c4)cc3)cs1)CCCC2` [Compound 39], which solubility [1, 2] is on record?
**A.** The solubility was 2.3 µM (≈ 0.93 µg/mL).

**Q.** And the IC50 (Aβ42)?
**A.** Its IC50 is greater than 500 nM.

**Q.** For `CCn1nc2c(c1Nc1nc(-c3ccc(-n4cnc(C)c4)c(F)c3)cs1)CCCC2` [Compound 40], which IC50 (Aβ42) is on record?
**A.** Its IC50 is 100 to 250 nM.

**Q.** With `CCn1nc2c(c1Nc1nc(-c3ccc(-n4cnc(C)c4)c(OC)c3)cs1)CCCC2` [Compound 41] as the compound, how does the EC50 (Aβ38) read?
**A.** The EC50 was greater than 500 nM.

**Q.** What about the “NICD levels (NOTCH proteolysis) compared to control” value (NOTCH) of the same compound?
**A.** Its value is “did not change NICD levels”.

**Q.** And the solubility [1, 2]?
**A.** Its solubility is 7.9 µM (≈ 3.43 µg/mL).

**Q.** What about the solubility ([1]; pH 7.4, aqueous buffer, pH7.4, read-out: Solubility (μM) pH7.4) of the same compound?
**A.** The solubility was 6.4 µM (≈ 2.78 µg/mL).

**Q.** What about the IC50 (Aβ42) of the same compound?
**A.** Its IC50 is less than 100 nM.

**Q.** With `CCn1nc2c(c1Nc1nc(-c3ccc(-n4cnc(C)c4)nc3)cs1)CCCC2` [Compound 42] as the compound, how does the IC50 (Aβ42) read?
**A.** The IC50 was greater than 500 nM.

**Q.** With `COc1cc(-c2csc(Nc3cc(C(C)(C)C)nn3C(C)C)n2)ccc1-n1cnc(C)c1` [Compound 43] as the compound, how does the IC50 (Aβ42) read?
**A.** The IC50 was 100 to 250 nM.

**Q.** For `CCCn1nc(C(C)(C)C)cc1Nc1nc(-c2ccc(-n3cnc(C)c3)c(OC)c2)cs1` [Compound 45], which IC50 (Aβ42) is on record?
**A.** Its IC50 is less than 100 nM.

**Q.** Which IC50 (Aβ42) does the source give for `Cc1cn(-c2ccc(-c3csc(Nc4cc(C(C)(C)C)nn4C(C)C)n3)cc2F)cn1` [Compound 46] here?
**A.** Its IC50 is less than 100 nM.

**Q.** With `CCCn1nc(C(C)(C)C)cc1Nc1nc(-c2ccc(-n3cnc(C)c3)c(F)c2)cs1` [Compound 48] as the compound, how does the IC50 (Aβ42) read?
**A.** The IC50 was less than 100 nM.

**Q.** For `CCn1nc2c(c1Nc1nc(-c3ccc(-n4cnc(C)c4)c(OC)n3)cs1)CCCC2` [Compound 49], which IC50 (Aβ42) is on record?
**A.** The IC50 was less than 100 nM.

**Q.** Which “NICD levels (NOTCH proteolysis) compared to control” value (NOTCH) does the source give for `C[C@H](NC(=O)Cc1cc(F)cc(F)c1)C(=O)N[C@H](C(=O)OC(C)(C)C)c1ccccc1` [DAPT, reference compound] here?
**A.** The value was “decreased NICD levels”.
